One assay concerns human CXCR4 receptor. In words: In vitro receptor binding studies (CXCR4). The source says: (§1) In a particular preferred embodiment the peptidic CXCR4 inhibitor is cyclo(-Tyr-His-Ala-Cys-Ser-Ala-^DPro-Dab-Arg-Tyr-Cys-Tyr-Gln-Lys-^DPro-Pro-) having a disulfide bond between Cys^4 and Cys^11, or pharmaceutically acceptable sals thereof. Cyclo(-Tyr-His-Ala-Cys-Ser-Ala-^DPro-Dab-Arg-Tyr-Cys-Tyr-Gln-Lys-^DPro-Pro-) having a disulfide bond between Cys^4 and Cys^11 is also referred as POL6326 herein or balixafortide. POL6326 is a cyclic synthetic peptide consisting of 16 amino acids and an antagonist of the highly conserved chemokine receptor CXCR4.

Assay [1] deals with other potential target receptors. In words: In vitro receptor binding studies (other receptors).
Text: as §1

Assay [2] has as its system breast cancer PDX Ma15169. Put plainly: Tumor growth of breast cancer PDX Ma15169 in humanized NOG-EXL mice. Type of assay: in vivo. The conditions noted are these: for rating according to RECIST criteria: based on T/C at last day of the study (day 183); for T/C value: last day of the study (day 183), tumor volume treated-to-control. On the procedure: The study was designed to determine the response of the breast cancer PDX Ma15169 to treatment with Paclitaxel single agent, Balixafortide single agent and the combination of both in humanized NOG-EXL mice. Humanized NOG-EXL mice bearing the breast cancer PDX Ma15169 were treated with Paclitaxel and Balixafortide according to Table 1. Ma15169 is a patient derived xenograft (PDX) that was from a patient with an invasive ductal carcinoma (ypT1a ypNla R0 G3 L1 V1). The patient tumour was ER/PR as well as Her-2 negative. The tumour material was expanded in 9 donor mice (NOG, Taconic; https://www.taconic.com/mouse-model/ciea-nog-mouse) and fragments of about 10mm3 were each implanted subcutaneously into the flank of 50 humanized NOG-EXL mice; at this time, the passage number of Ma15169 was #4. Table 1: Course of events during the study
Female NOG-EXL mice with an age of about 4 weeks were used for the constitution of human immune cells. 24 hours before CD34+ cell inoculation mice were irradiated with 1Gy. Human CD34+ cells were isolated from fresh cord blood within the laboratories of EPO (Experimental Pharmacology & Oncology Berlin-Buch GmbH, Berlin-Buch, Germany) and preserved in liquid nitrogen until use. For the study MV16883 a pool of 5 different donors (CB AG 101, CB AG 97, CB KR 104, CB AG 106, CB AG 107) prepared. After thawing the cells were washed with PBS, pooled and washed again followed by Trypan blue staining and cell counting using Neubauer chamber. A total of 5x10^4 vital cells were resuspended in 200µl PBS and injected intravenously into the tail vain of all mice.
Determination of human immune cells by FACS was performed at days 46, 84 and 115 after cell inoculation (leucocytes CD45+, B cells CD19+, T cells CD3+, NK cells CD56+/CD16+ and monocytes CD14+; Human Immunophenotyping 8-color-Kit (Miltenyi)). The mice were weighed weekly and monitored for general health two times weekly.
The PDX Ma15169 is maintained by EPO (Experimental Pharmacology & Oncology Berlin-Buch GmbH, Berlin-Buch, Germany) as in vivo passage; the passage number for this study was #4. Donor mice (female NOG; Taconic) with tumors of about 1cm3 were used for the preparation of this study MV16883.
After removal of the tumor tissue from donor mice, the tumors were cut into fragments (2-3 mm diameter - approximately 10mm3) and placed in cooled RPMI 1640 culture medium until s.c. implantation within 30 minutes. The humanized NOG-EXL mice were anaesthetized with Etomidate and received a small incision in the skin of the left flank. The tumor fragments (one fragment/mouse) were implanted with tweezers and the incision closed with a suture clip (#310417, Covetrus GmbH). The clips were removed after seven days and mice controlled two times weekly by means of palpation. The implantation of tumor fragments was performed 122 days after the inoculation of CD34+ cells.
Tumor bearing mice were stratified into 4 treatment groups according to their tumor volumes at day 154 post CD34+ cell inoculation (32 days after tumor implantation). […] During stratification the animals were individually marked by earmarks.
Paclitaxel (Taxomedac™ comprising paclictaxel, citric acid, ethanol and PEG (30-50) castor oil) was given i.v. at a dose of 10 mg/kg twice weekly. Balixafortide was given s.c. at a dose of 20 mg/kg once daily for the first 5 days and twice daily for 5 days followed by treatment breaks of 2 days until the end of treatment period (Fig. 1). Total treatment duration was 29 days. […]

Turning to `C[C@@H]1NC(=O)[C@H](Cc2c[nH]cn2)NC(=O)[C@H](Cc2ccc(O)cc2)NC(=O)[C@@H]2CCCN2C(=O)[C@H]2CCCN2C(=O)[C@H](CCCCN)NC(=O)[C@H](CCC(N)=O)NC(=O)[C@H](Cc2ccc(O)cc2)NC(=O)[C@@H]2CSSC[C@H](NC1=O)C(=O)N[C@@H](CO)C(=O)N[C@@H](C)C(=O)N1CCC[C@@H]1C(=O)N[C@@H](CCN)C(=O)N[C@@H](CCCNC(=N)N)C(=O)N[C@@H](Cc1ccc(O)cc1)C(=O)N2` [Balixafortide, cyclo(-Tyr-His-Ala-Cys-Ser-Ala-^DPro-Dab-Arg-Tyr-Cys-Tyr-Gln-Lys-^DPro-Pro-) having a disulfide bond between Cys^4 and Cys^11], the “affinity for the human CXCR4 receptor” value in the assay with human CXCR4 receptor is “significant affinity”. Further, the “binding to other potential target receptors” value in assay [1] is “general lack of significant binding”. In addition, the “rating according to RECIST criteria” value in assay [2] is listed as “progressive disease”. Further, the “optimum T/C value” in assay [2] (day 168, Balixafortide 20 mg/kg s.c., p > 0.05) was 79%. Moreover, the T/C value in assay [2] (Balixafortide 20 mg/kg s.c.) is recorded as 107%.
In the case of `CC(=O)O[C@H]1C(=O)[C@@]2(C)[C@H]([C@H](OC(=O)c3ccccc3)[C@]3(O)C[C@H](OC(=O)[C@H](O)[C@@H](NC(=O)c4ccccc4)c4ccccc4)C(C)=C1C3(C)C)[C@]1(OC(C)=O)CO[C@@H]1C[C@@H]2O` [Paclitaxel], the “rating according to RECIST criteria” value in assay [2] is reported as “stable disease”. For the same compound, in assay [2] (Paclitaxel 10 mg/kg i.v. twice weekly, Balixafortide 20 mg/kg s.c.), the T/C value turned out to be 42%.

For the origin of these results see patent publication EP4000613A1, “PHARMACEUTICAL COMBINATIONS COMPRISING A PEPTIDE CXCR4 INHIBITOR AND A TAXANE FOR TREATING CANCER” (Polyphor AG, priority 2020, dated 2022).
